TGI and GI50 data for 16 compounds are collected here from PubChem BioAssay (NCI).

What all share (assay): NCI-60 cell line screen, 48 h
Experiment [1] has as its system SF-268 CNS.
Experiment [2] has as its system OVCAR-4 ovarian.
The subject of experiment [3] is HCT-116 colon.
Experiment [4] has as its system MALME-3M melanoma.
For experiment [5], the system named is MDA-MB-231 breast.
In experiment [6] the test system is MDA-N.
Experiment [7] deals with OVCAR-5 ovarian.
Experiment [8] relates to SK-MEL-28 melanoma.
Experiment [9] deals with LOX IMVI melanoma.

The structures appear in SMILES notation.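 Interpolation was linear, between the two tested concentrations surrounding the appropriate level; five concentrations were tested over 48 hours in 96-well plates. GI50: concentration for 50% inhibition of growth. TGI is the concentration that stops growth completely.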 Where a SMILES comes first, the peptide text is derived from it. [ ]: non-standard residue; d: D form. The star is where a group is joined. mTyr = N[CH](Cc1cccc(O)c1)C(=O)O; Cbz = O=C(OCc1ccccc1)*; OBn = c1ccc(CO*)cc1

As to `COC(=O)C1=C(C)N2[C@H](C(=O)O)CO[C@@]2(C)[C@H](C(=O)OC)[C@H]1c1cccc([N+](=O)[O-])c1`, the TGI in experiment [1], in experiment [2], in experiment [3], in experiment [4], in experiment [5] and in [6] was > 100 µM throughout. The TGI in experiment [7] and in experiment [8] was > 100 µM in each case.

Take `Fc1ccccc1C1SCc2nc3cc4ccccc4cc3n21` (stereo not drawn): the TGI in experiment [1], in experiment [2], in [3], in experiment [4], in experiment [5] and in experiment [6] was > 100 µM in each case. Also, the TGI in experiment [7] and in [8] was > 100 µM throughout.

With `COc1ccc(-n2cnc3c(NC(CCSC)C(=O)O)ncnc32)cc1` (stereo not drawn), the TGI in experiment [1], in experiment [2], in experiment [3], in [5], in [6] and in experiment [9] was > 100 µM throughout. Besides, the TGI in [7] and in experiment [8] was > 100 µM in each case.

`CCC1(COC(NC(=O)c2ccccc2)(C(F)(F)F)C(F)(F)F)COC1`: the TGI in experiment [1], in [3], in [6], in experiment [9], in [7] and in [8] was > 100 µM each time.

In the case of `CCNC1=C(NC(=O)CC)C(=O)c2ccccc2C1=O`, the TGI in experiment [1] is > 100 µM; in experiment [2] it was > 100 µM; in experiment [3], > 100 µM; in experiment [4], 60.1 µM; in experiment [5], > 100 µM; in experiment [6], > 100 µM. The TGI in experiment [7] and in experiment [8] was > 100 µM throughout.

As to `O=C1C[C@@H](c2ccccc2)O[C@@H](c2ccccc2)C1`, the TGI in [1], in experiment [2], in experiment [3], in experiment [4], in experiment [5] and in experiment [6] was > 100 µM each time. In addition, the TGI in experiment [9] and in experiment [7] was > 100 µM each time.

For `O=C(Nc1cccc(F)c1)c1cc2ccc(O)cc2oc1=Nc1ccccc1F`, the TGI was determined as 15.4 µM in [1]; 26.8 µM in [2]; 12.9 µM in experiment [3]; 18.6 µM in experiment [4]; 17.7 µM in experiment [6]; 7.15 µM in experiment [9]. The TGI is 36.1 µM in [7] and 18 µM in [8].

With `c1ccc2c3c([nH]c2c1)C1CCCN1CC3` (stereo not drawn), the TGI in [1], in experiment [2], in experiment [4], in [5], in experiment [6] and in [9] was > 10 µM each time. The TGI in experiment [7] and in [8] was > 10 µM throughout.

With `CC(C)=C/C=C1/CS(=O)(=O)C=C1C`, the TGI in experiment [3], in experiment [4], in experiment [5], in experiment [6], in experiment [9] and in experiment [7] was > 100 µM in each case. Further, the TGI in experiment [8] was > 100 µM.

On to `CC[C@@H](/C=C\CCC(=O)C[C@H](O)CCC=C(C)C)O[Si](C(C)C)(C(C)C)C(C)C`, for which the TGI in [1], in [2], in experiment [3], in experiment [5], in [6] and in experiment [9] was > 100 µM in each case. Besides, the TGI in [7] and in experiment [8] was > 100 µM throughout.

On to `O=C(N/N=C/c1cc(Cl)cc(Cl)c1O)c1ccccc1O`, for which the TGI in experiment [1] is 30.8 µM; in experiment [3] it was 14.5 µM; in experiment [4], 11.6 µM; in experiment [9], 24.9 µM; in [7], 7.82 µM; in experiment [8], 25.2 µM. Further, the GI50 is 2.48 µM in [3] and 2.8 µM in [4].

Regarding `Cc1ccc2nc(NC(=O)/C(Cc3nc4ccc(Cl)cc4[nH]c3=O)=N\NC(C)(C)C)sc2c1`, the TGI in experiment [1], in [2], in experiment [3], in experiment [5], in experiment [6] and in experiment [9] was > 100 µM throughout. Further, the TGI in experiment [7] and in [8] was > 100 µM in each case.

As for `Cc1n[nH]c(=O)n1/N=C/c1ccc([N+](=O)[O-])o1`, the TGI was 45.6 µM in [1]; 32.3 µM in [2]; 30.2 µM in experiment [3]; 15.5 µM in experiment [4]; 74.9 µM in experiment [5]; 27.1 µM in [9]. For the same compound, the values for the TGI in experiment [7] and in [8] were 53.1 µM and 28.3 µM, respectively.

Consider `COC12c3ccccc3-c3ccccc3C1[C@H]1C(=O)OC(=O)[C@H]12` (stereo partly drawn), for which the TGI in experiment [1], in [2], in experiment [4], in experiment [5], in [6] and in experiment [9] was > 10 µM each time. Moreover, the TGI in experiment [7] and in experiment [8] was > 10 µM each time.

Take `COC(=O)C(Cc1cccc(O)c1)NC(=O)C(CC(=O)OCc1ccccc1)NC(=O)OCc1ccccc1` (stereo not drawn) (Cbz-Asp(OBn)-[mTyr]-OMe; configuration not given here): the TGI in experiment [3], in experiment [4], in [5], in experiment [6], in experiment [7] and in [8] was > 100 µM each time.

`CCOc1ccc(-n2nnc3c(N)nc(N)nc32)cc1`: the TGI in [2], in experiment [3], in [4], in experiment [5], in experiment [6] and in experiment [9] was > 100 µM each time. Besides, the TGI in experiment [7] and in [8] was > 100 µM each time.
